Test results published in ChEMBL document CHEMBL1149677, “Synthesis of fluorescent and photoaffinity-labeled derivatives of bisphenol A and their inhibitory activity toward hypoxic expression of erythropoietin” (Bioorg Med Chem Lett, 2007).
Activity calls are given as the source filed them. The calls are words filed in the database; no cut-off is given here.

Experiments:
Assay type in all cases: functional, cell-based
Hep 3B2 [1] = experiment: Inhibition of erythropoietin expression in human Hep3B cells
Hep 3B2 [2] = experiment: Inhibition of erythropoietin expression in human Hep3B cells at 200 uM
Hep 3B2 [3] = experiment: Inhibition of erythropoietin expression in human Hep3B cells at 300 uM

| Structure (SMILES) | Activity (Hep 3B2 [1]) | other results |
| --- | --- | --- |
| CC(C)(c1ccc(O)cc1)c1ccc(OCCCCNc2ccc([N+](=O)[O-])c3nonc23)cc1 | Active | – |
| CC(C)(c1ccc(OCCCCNc2ccc([N+](=O)[O-])c3nonc23)cc1)c1ccc(OCCCCOc2ccc(C3(C(F)(F)F)N=N3)cc2)cc1 | – | Activity (Hep 3B2 [2]): Active |
| CC(C)(c1ccc(OCCNc2ccc([N+](=O)[O-])c3nonc23)cc1)c1ccc(OCCOc2ccc(C3(C(F)(F)F)N=N3)cc2)cc1 | – | Activity (Hep 3B2 [3]): Active |
| COCOc1ccc(C(C)(C)c2ccc(OCCCCOc3ccc(C4(C(F)(F)F)N=N4)cc3)cc2)cc1 | inactive | – |
| COCOc1ccc(C(C)(C)c2ccc(OCCCCNc3ccc([N+](=O)[O-])c4nonc34)cc2)cc1 | Active | – |
